One compound from patent US5719287A, “Intermediates for inhibitors of HIV protease and method of preparation thereof” (Eli Lilly and Company, priority 1995, dated 1998) can be followed below.

Assay [1] deals with T1, HIV-1 protease (Human immunodeficiency virus type 1 group M subtype B, UniProt P04585).
T1 construct: Purified HIV-1 protease was obtained as described below; made in house; host or cells: E. coli K12 L507/pHP10D (NRRL B-18560)
The experiment in a line: biochemical. Particulars: read-out: Fluorescence Assay IC50 (converted). In short, it runs like this:
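Purified recombinant HIV-1 protease from E. coli preincubated 1 h at room temperature with compound in 20% aqueous DMSO, then biotin-peptide-FITC substrate added in MES-ALB buffer for 16 h at room temperature. Cleavage measured by avidin-bead capture, fluorescence ex 485/em 535 nm.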

Assay [2] addresses T1, HIV-1 protease. The experiment in a line: Western Blot Analysis of HIV Protease Inhibition Assay (HIV-1 protease produced in E. coli, processing of gag polyprotein Pr48^gag). The format is biochemical. The note with it: yield of p17 from gag polyprotein; 30 min preincubation at room temperature, one hour at 37° C. The protocol:
The compounds of the present invention were also tested for their ability to block HIV protease processing of Pr48^gag (a recombinant polyprotein containing p 17, p24 and p7).
A. Culture of E. coli K12 L507/DHP10D
Lyophils of E. coli K12 L507/pHP10D are obtained from the Northern Regional Research Laboratory, Peoria, Ill. 61604, under the accession number NRRL B-18560 (deposited Nov. 14, 1989). The lyophils are decanted into tubes containing 10 ml LB medium (10 g Bacto-tryptone, 5 g Bacto-yeast extract, and 10 g NaCl per liter; pH is adjusted to 7.5) and incubated at 32° C., overnight.
A small portion of the overnight culture was placed on LB-agar (LB medium with 15 g/l Bacto-agar) plates containing 12.5 μg/ml tetracycline in a manner so as to obtain a single colony isolate of E. coli K12 L507/pHP10D.The single colony obtained was inoculated into 10 ml of LB medium containing 12.5 μg/ml tetracycline and incubated overnight at 32° C. with vigorous shaking. The 10 ml overnight culture was inoculated into LB medium containing 12.5 μg/ml tetracycline and incubated at 32° C. with vigorous shaking until the culture reached mid-log phase.
B. Culture of E. coli K12 L507/pHGAG
Lyophils of E. coli K12 L507/pHGAG are obtained from the NRRL under the accession number NRRL B-18561 (deposited Nov. 14, 1989). A purified colony of E. coli K 12 L507/pHGAG was isolated, and used as an inoculum for a culture which was grown to mid-log phase in substantial accordance with the teaching of Step A above for E. Coli K12 L507/pHP10D.
C. Preparation of Protease and gag fractions
A culture of E. coli K12 L507/pHP10D was grown to mid-log phase at 32° C. in LB media containing 12.5 μg/ml tetracycline. The cultivation temperature was quickly elevated to 40° C. to induce gene expression, and the cells were allowed to grow for 2.5 hours at this temperature before the culture was quickly chilled on ice. The cells were centrifuged and the cell pellet was resuspended in 20 ml 50 mmol MES buffer (pH 6.0) containing 1 mmol EDTA, 1 mmol DTT, 1 mmol PMSF, and 10% glycerol (Buffer A). Cells were lysed by sonication using a Fischer Model 300 Dismembrator and a microtip probe. […] Enzymatic activity was measured by HPLC using the synthetic peptide SQNYPIV as described in Margolin et al., Biochem. Biophys. Res. Commun., 167, 554-560 (1990); the production of the pl peptide (SQNY) was measured.
Active fractions were pooled, made 1.2M in ammonium sulfate, and applied to a hexyl agarose column (2.0×18 cm) equilibrated in Buffer A containing 1.2M ammonium sulfate. The sample, in 125 ml (1.85 mg/ml), was loaded at a flow rate of 1 ml/min at 4° C. […] The column was then washed isocratically in Buffer A for 120 min. Active fractions were pooled, concentrated to 10 ml using an Amicon stirred cell with a YM-10 membrane, and applied at 1 ml/min to a MonoS cation exchange column (1.0×10 cm) equilibrated in Buffer A. After washing isocratically for 30 min, protease was eluted using a linear gradient of 0-0.45M NaCl in Buffer A over 40 min followed by an isocratic wash with Buffer A containing 0.45M NaCl over 30 min. Chromatography was performed at 25° C.
Pooled active fractions were concentrated to 200 ul using an Amicon stirred cell and a YM-10 membrane, and the protease was then applied to a Superose 6 size exclusion column equilibrated in Buffer A containing 0.1M NaCl. The column was washed isocratically in this buffer at a flow rate of 0.5 ml/min.
QAE-Sepharose, and hexyl agarose were purchased from Sigma Chemical Company. Superose 6 and MonoS were products of Pharmacia. Buffers and reagents were obtained from Sigma.
In an analogous manner, a culture of E. coli K12 507/pHGAG was grown to mid-log phase at 32° C. then shifted to 40° C. for about 4 to 5 hours. The culture was chilled on ice and centrifuged, then the pellet was resuspended in 8 ml lysis buffer containing 5 mg/ml lysozyme.
In general terms: A western blot detects proteins with antibodies after separation by electrophoresis.

One may read the IC50 as the concentration that inhibits the measured activity by half. As for `CC(C)(C)NC(=O)c1ccccc1C[C@@H](O)[C@H](Cc1ccccc1)NC(=O)[C@H](Cc1cnc[nH]1)NC(=O)c1ccc2ccccc2n1` [Example 17, [1S-(1R*, 4R*. 5S*)]-N-(1-(4-imidazolylmethyl)-2-oxo-3-aza-4-phenylmethyl-5-hydroxy-6-(2-(1-t-butylamino-1-oxomethyl)phenyl)hexyl)-2-quinolinyl carboxamide], the IC50 in assay [1] is 1.9 nM; in assay [2] it was 0.5 nM.
